Test results published in patent US20200305471A1, “METHODS AND COMPOSITIONS FOR IMPROVING THE TASTE OF DIET COLA SODAS AND OTHER BEVERAGES” (priority 2017, published 2020).

Columns and labels:
[1] = as sweet as sucrose; cited from earlier work
[2] = Taste and/or aroma of Diet Coke after adding the substance (opinions of a few people); details: for taste and/or aroma of Diet Coke after adding the substance: substance alone added to about 220 ml (7.5 ounces) Diet Coke, room temperature
Source text: For the embodiments disclosed herein, the signifier “aroma” is used in preference to its synonyms: smell and odor (which have negative connotations), and scent (which has perfume connotations). The signifier “taste” is mostly used herein, and to a lesser extent, “flavor”, which often signifies a specific “taste”.
Taste and aroma are not separate sensory experiences. […] This is attributed to the odor sensors in the nose being blocked. […] Thus, in many of the embodiments disclosed herein, the term “taste and/or aroma” is used.
For the exemplary embodiments that follow, the examples are performed with all liquids at room temperature. Sodas typically taste more flavorful at lower temperatures (sodas retain carbonation better at lower temperatures, which creates a better taste for many people). […] Tastes and/or aromas can also vary due to the use of soda container: glass, plastic or metal. There are many who think that cola sodas taste best when consumed from glass bottles. For many of the exemplary embodiments disclosed herein, Bodum Pavina Coffee Mugs, double-wall insulated glass mugs, 8 ounce size, are used.
One embodiment of an improved diet cola beverage product is understood with the following exemplary method and resulting exemplary article of manufacture. […] Any coca leaf extract with similar chemical components to ERC-A20 can be used—coca leaf extracts discussed below.

[3] = chemicals of externally-applied lavender or tea tree oils; NIH 2018; cited from earlier work
[4] = cited from earlier work

For `OC[C@@H](O)[C@@H](O)[C@H](O)[C@@H](O)CO` [sorbitol], which “sweetness relative to sucrose” value [1] is on record?
The value was “about 60%”.

With `CC1=CCC(C(C)C)=CC1` [gamma-terpinene] as the compound, how does the “taste and/or aroma of Diet Coke after adding the substance” value (shortened to “taste and/or aroma of Diet Coke”) [2] read?
Its value is “while more pleasant as seen with adding alpha-terpineol, also has less of a “coca cola” taste”.

Which “taste and/or aroma of Diet Coke” value [2] does the source give for `COC(=O)c1ccccc1` [methyl benzoate] here?
Its value is “improvement in Diet Coke taste similar to that of ethyl benzoate”.

For `O=S(=O)([O-])NC1CCCCC1.[Na+]` [sodium cyclamate], which “taste test preference, added to Diet Coke versus added to Coca-Cola Zero” value ([2]; some taste tests, Diet Coke (total 2 artificial sweeteners) vs Coca-Cola Zero (3 artificial sweeteners)) is on record?
Its value is “more preferred”.

With `C=C(C)[C@H]1CC=C(C)CC1` [limonene] as the compound, how does the “contribution to abnormal breast growth (potential hormone disruptor)” value (shortened to “contribution to abnormal breast growth”) [3] read?
The value was “probably contributed to the abnormal breast growth”.

What does the source list for `CC1=CCC(C(C)(C)O)CC1` (stereo not drawn) [alpha-terpineol]?
taste and/or aroma of Diet Coke after adding the substance [2]: more pleasant; contribution to abnormal breast growth (potential hormone disruptor) [3]: probably contributed to the abnormal breast growth

With `CC1=CCC(O)(C(C)C)CC1` (centres unmarked) [4-terpineol] as the compound, how does the “contribution to abnormal breast growth” value [3] read?
The value was “probably contributed to the abnormal breast growth”.

With `O=C([O-])c1ccccc1.[Na+]` [sodium benzoate, reference compound] as the compound, how does the “taste and/or aroma of Diet Coke” value [2] read?
The value was “No improvement”.

For `CC1=CC=C(C(C)C)CC1` [alpha-terpinene], which “contribution to abnormal breast growth” value [3] is on record?
Its value is “probably contributed to the abnormal breast growth”.

With `CC12CCC(CC1)C(C)(C)O2` [eucalyptol] as the compound, how does the “contribution to abnormal breast growth” value [3] read?
The value was “probably contributed to the abnormal breast growth”.

With `CCOC(=O)c1ccccc1` [ethyl benzoate] as the compound, how does the “taste and/or aroma of Diet Coke” value [2] read?
Its value is “more pleasant than that of untreated Diet Coke”.

What about the solubility in water [4] of the same compound?
The solubility in water was 500 micrograms/milliliter.

Which “contribution to abnormal breast growth” value [3] does the source give for `C=CC(C)(CCC=C(C)C)OC(C)=O` (centres unmarked) [linalyl acetate] here?
Its value is “probably contributed to the abnormal breast growth”.

Which results are given for `C=CC(C)(O)CCC=C(C)C` (centres unmarked) [linalool]?
taste and/or aroma of Diet Coke after adding the substance [2]: little-to-no change in the unpleasant; contribution to abnormal breast growth (potential hormone disruptor) [3]: probably contributed to the abnormal breast growth

With `OC[C@H]1O[C@@](CO)(O[C@H]2O[C@H](CO)[C@@H](O)[C@H](O)[C@H]2O)[C@@H](O)[C@@H]1O` [sugar] as the compound, how does the “taste of resulting beverage, sweetener added together with coca leaf extract” value ([2]; 220 ml Diet Coke + one teaspoon coca leaf extract + sweetener (about one bag Sugar Twin; one to two bags sugar)) read?
Its value is “more pleasant tasting Diet Coke soda”.
